Patent publication US20010005752A1, “Fluorescent dyes (AIDA) for solid phase and solution phase screening” (priority 1998, published 2001)
Each block holds one compound with its values, some of them ahead of it.

How the values were obtained:
[1] = in acetonitrile; cited from earlier work
[2] = in acetonitrile; cited from earlier work; remark: listed apart in the source
[3] = biological target: T1, avidin (Gallus gallus, UniProt P02701); test: FRET / quenching with unlabelled avidin (tryptophan donor, AIDA acceptor); assay type: binding
T1 construct: purchased Molecular Probes (Eugene, Oreg.) A-2767
T1 sequence (P02701 25-152): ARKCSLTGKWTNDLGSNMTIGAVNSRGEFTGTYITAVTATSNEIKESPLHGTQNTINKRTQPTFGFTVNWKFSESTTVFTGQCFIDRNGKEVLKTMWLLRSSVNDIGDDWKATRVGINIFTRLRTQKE
Protocol: (§1) For solubility reasons, 4e is spectroscopically characterized in THF. All complexation reactions and fluorescence resonance energy transfer measurements are performed in PBS/5% DMSO at 25° C., unless indicated otherwise.
(§2) Spectral bandwidths are set to 8 and 16 nm for excitation and emission, respectively. Measurements are performed at 25° C. in a 750 μL quartz cuvette (10 mm optical pathlength) without stirring after initial mixing. A concentration of 50 nM of 9 or 11 is used for complexation with 1 μM of (fluorescent) avidin. […] All titrations are performed in magic angle setting, with the emission wavelength set to […] in experiments where the indazole is the acceptor, and with an excitation spectrum recorded from 250 nm to 360 nm. In experiments where indazole is used as donor and Lucifer Yellow or BODIPY FL is the acceptor, the excitation wavelength is set to 338 nm or 325 nm. The fluorescence emission is collected between 360 nm and 700 nm. The spectra are corrected for Raman scattering from the PBS solution, for dilution, and for inner filter effects due to protein additions, The signal is adjusted for lamp intensity changes by ratio mode detection with a Rhodamine B quantum counter in the reference channel. A WG 360 emission cutoff filter is used for straylight reduction. Data are collected in 2 nm increments with 1 second integration time.
An emission wavelength at 480 nm was chosen because the tryptophan fluorescence of avidin had almost reached the baseline level at this emission energy, resulting in only minor avidin fluorescence contribution between 250 and 370 nm. […] This quenching effect can be attributed to all radiative and non-radiative processes occurring to 11 in the vicinity of the tryptophans in the binding cleft. Corresponding to the ratio of the negative and positive areas under the fluorescence difference curve (black), 62% of this total quenching effect is fluorescence resonance energy transfer. From 250 to 305 nm the enhancement of the tryptophan and tyrosine fluorescence intensity is 72% based on the sum of 11 and avidin.

[4] = biological target: T1, avidin; test: Time-resolved fluorescence depolarisation on binding of avidin; conditions: PBS/5% DMSO
Protocol: Picosecond time-resolved fluorescence measurements are recorded according to the single photon counting technique [Lakowicz, 1983 p 52-93, 112-153, 156-185]. An Ar^+-pumped Ti:Sapphire laser (model MIRA 900, Coherent, Santa Clara, USA) provided under mode-locked conditions ultrashort pulses (FWHM=150 fs) with a frequency of 75 MHz. To reduce the repetition rate to 4.7 MHz, a pulse picker (model 9200, Coherent, Santa Clara, USA) is inserted into the beam. […] Fluorescence photons are collected in a Spex 1681 single grating monochromator (Spex, Edison, USA) and detected with the Hamamatsu R3809U microchannel plate (Hamamatsu, Shimokanzo, Japan). […] The voltage values which correspond to the time passed between excitation and emission of a fluorescence photon in a single experiment are stored in the Spectrum Master 921 (Ortec, Oak Ridge, USA) which is connected to the multichannel emulation program Maestro (Ortec, Oak Ridge, USA). […]
c. Binding of AIDA conjugate 8 to avidin-BODIPY detected by rotational diffusion and energy transfer: Energy transfer between the indazole moiety in 8 and the 3.3 BODIPY-FL lables on avidin by time-resolved fluorescence spectroscopy.
Binding of avidin labelled with BODIPY-FL to 8 creates a further depolarisation mode for the indazole fluorescence: Fluorescence resonance energy transfer between the indazole moiety of 8 and the BODIPY-FL labels. […]

[5] = UV-Vis absorption spectroscopy; assay type: physicochemical; conditions: acetonitrile/2% DMSO
Protocol: UV-Vis absorption spectroscopy is performed on a Cary 1E spectrophotometer. […]
[…] […] From each stock solution, 5 dilutions with concentrations of 2.5 μm, 10 μM, 17 μM, 25 μm and 35 μM are made. UV-spectra of each dilution are recorded from 200 to 400 nm, using a quarz cuvette with a pathlength of 1 cm. […] A linear fit is carried out for each series of measurements. The extinction coefficient ε at 337 nm is given by the slope of the linear regression.

[6] = biological target: T2, avidin-BODIPY-FL (Gallus gallus, UniProt P02701); test: FRET / quenching with avidin-BODIPY-FL (AIDA donor, BODIPY-FL acceptor); assay type: binding
T2 construct: BODIPY FL (chemical fluorescent label, about 3.3 per avidin); purchased Molecular Probes (Eugene, Oreg.) A-2641
T2 sequence (P02701 25-152): as above
Protocol: as §1, §2
In these experiments 11 was used as donor and BODIPY-FL as acceptor. At an excitation wavelength of 338 nm the emission of 11 between 360 nm and 516 nm is strongly quenched by approximately 80% in the complexed form. The standard definition for energy transfer efficiency, E=1−Fda/Fd, would result in E≅0.8. […] The approximately 80% reduction in signal intensity of 11 can be caused either by FRET or from local quenching of the fluorescence of 11 mainly by ground state interactions. […] Due to the broad fluorescence emission of 11 in water the detection wavelength can be shifted up to 500 nm which is at lower energy than most background fluorescence signals from small chemical compounds.

[7] = Steady-state fluorescence spectroscopy (excitation and emission spectra); assay type: physicochemical; conditions: for Emission range in parenthesis / Emission λmax / Excitation range in parenthesis / Excitation λmax: acetonitrile/2% DMSO
Protocol: Steady-state fluorescence measurements are performed on a SLM 8000C spectro-fluorometer equipped with JD490 photomultipliers and a 450 W Xenon Arclamp (SLM Instruments, Urbana, Ill.).
[…] Spectral bandwidths are set to 1 and 4 nm for excitation and emission, respectively. Spectra are recorded in single photon counting mode. Changes in lamp intensity are corrected with a quantum counter in the reference channel, measured in slow mode. Gain is set to x 100 with a high voltage (HV) of 640 V. Integration time is 2 seconds. For excitation spectra measurements, the emission wavelength is set to 397 nm and the sample is excited from 200 to 400 nm. For recording emission spectra, the sample is excited at 342 nm and the emission is recorded from 350 to 540 nm. The data are averaged over two scans.

[8] = biological target: T1, avidin; test: Fluorescence anisotropy as signal for binding to avidin
Protocol: as §1
(§3) Fluorescence anisotropy is calculated according to [Lakowicz, 1983].
(§4) Spectral bandwidths are set to 4 and 8 nm for excitation and emission, respectively, with 5 seconds integration time. For calculation of fluorescence anisotropy ten data points are averaged.
(§5) This value is indicative for a small monomeric molecule rotating free in solution. […] When 1 μM of the BODIPY-FL labelled avidin was used as substrate the r-value was 0.100. This reduced change in anisotropy probably reflects the lower affinity of the BODIPY-FL labelled avidin as compared to the unlabelled material.

[9] = biological target: T3, BODIPY-FL labelled avidin (Gallus gallus, UniProt P02701); test: Fluorescence anisotropy with BODIPY-FL labelled avidin; assay type: binding; conditions: 50 nM conjugate, 1 μM BODIPY-FL labelled avidin
T3 construct: BODIPY FL (chemical fluorescent label, about 3.3 per avidin); purchased Molecular Probes (Eugene, Oreg.) A-2641
T3 sequence (P02701 25-152): as above
Protocol: as §1, §3, §4, §5

[10] = unlabelled avidin, conjugate as acceptor

SMILES: c1ccc2[nH]ncc2c1 [1H-indazole]
maximum of absorption [1]: 294 nm
maximum of fluorescence emission [2]: 298 nm

enhanced energy transfer (tryptophan/indazole) [3, 10]: 120%
increase in indazole fluorescence emission on avidin complexation [3, 10]: 26%
fluorescence depolarisation on binding of avidin (unlabelled) [4]: slower depolarisation
Absorption λmax [5]: 331 nm
ε (at absorption λmax) [5]: 32158 M⁻¹ cm⁻¹
quenching of indazole (donor) emission in complex with avidin-BODIPY-FL ([6]; 50 nM conjugate, 1 μM avidin-BODIPY-FL, excitation 338 nm, emission 360-516 nm): 93.5%
Emission range in parenthesis [7]: 360-480 nm
Emission λmax [7]: 394 nm
Excitation range in parenthesis [7]: 310-360 nm
Excitation λmax [7]: 332 nm
SMILES: NC(=O)c1ccc(-n2nc(-c3ccc(C(=O)NCCCNC(=O)CCCCC4SCC5NC(=O)NC54)cc3)c3ccccc32)cc1 (stereo not drawn) [compound 8, 3′(+)-4-{3-[4-(3′-Biotinoylaminopropyl)-aminocarbonyl]phenyl-1H-indazol-1-yl}-benzoic acid Amide]
fluoresence energy transfer (acceptor sensitization) ([6]; avidin-BODIPY complex): 48%

quenching of conjugate fluorescence by complexation in the avidin binding site ([3]; 50 nM conjugate, 1 μM unlabelled avidin, emission 480 nm): about 25.5%
enhancement of tryptophan and tyrosine fluorescence intensity ([3]; 250 to 305 nm, based on the sum of 11 and avidin): 72%
tryptophan to conjugate energy transfer relative to free avidin plus 11 ([3]; detected at 480 nm): 70%
part of total quenching effect that is fluorescence resonance energy transfer ([3]; ratio of negative and positive areas under difference curve): 62%
Absorption λmax [5]: 334 nm
ε (at absorption λmax) [5]: 34349 M⁻¹ cm⁻¹
energy transfer efficiency E=1−Fda/Fd ([6]; standard definition, stated as not valid here): ~0.8
emission maximum ([7]; 50 nM, PBS/5% DMSO, excitation 338 nm): 438 nm
emission intensity at 500 nm ([7]; PBS buffer, 500 nm): about 50%
Emission range in parenthesis [7]: 370-480 nm
Emission λmax [7]: 397 nm
Excitation range in parenthesis [7]: 310-360 nm
Excitation λmax [7]: 336 nm
change of anisotropy on binding to avidin ([8]; 50 nM conjugate, 1 μM avidin): +444%
fluorescence anisotropy bound to avidin ([8]; 50 nM conjugate, 1 μM avidin): 0.151
basic fluorescence anisotropy (free conjugate) ([8]; 50 nM, excitation 338 nm, emission 438 nm, no avidin): 0.034
fluorescence anisotropy (r-value) with BODIPY-FL labelled avidin [9]: 0.100
SMILES: C=CCOC(=O)c1ccc(-c2nn(-c3ccc(C(=O)N[C@@H](CCCCNC(=O)CCCCC4SCC5NC(=O)NC54)C(=O)O)cc3)c3ccccc23)cc1 (stereo partly drawn) [compound 11]
